This is an account of results in US9332756B2, “Liquid formulations of carboxamide arthropodicides” (E I DU PONT DE NEMOURS AND COMPANY, priority 2006, dated 2016).

Usually mortality stands for the percentage killed.

Common to all, as to type: in vivo
The subject of data set [1] is beet armyworm (Spodoptera exigua). Put plainly: Test D: rainfastness for the control of beet armyworm on sprayed cotton plants. The note with it: Rain: Yes (about 95 mm simulated rain 2 h after spraying), four days after infestation. The source says: For evaluating rainfastness (resistance to wash-off) for the control of beet armyworm (Spodoptera exigua), the test unit consisted of a cotton plant grown in a pot containing Redi-earth® medium. Test solutions were formulated as described in TEST A. When the plants were at the 4-6 true leaf growth stage, the plants were sprayed with the formulated test solution using a belt sprayer with nozzle positioned 19 cm above the plants and providing an application volume of 234 liters/ha. After spraying of the formulated test solutions, each test unit was allowed to dry for 2 h and then exposed to about 95 mm of simulated rain in a greenhouse. Plants were then allowed to dry, and leaves were cut and placed on agar in 16-cell plastic trays. One 3-day-old, laboratory reared beet armyworm larva was placed in each cell, and the cells were covered with a plastic lid. Two 16-cell trays were used per treatment. Trays were held in a growth chamber at 75% relative humidity, 16 h with light (as daytime) and 8 h in dark (as nighttime) at 25° C. Four days after infestation, each test unit was evaluated for larvae mortality, and the mean concentrations killing 50% of the population (mean LC50) were calculated and are listed in Table 4D.

Data set [2] has as its system western flower thrips (Frankliniella occidentalis Pergande). Kind of data set: Test A: control of western flower thrips on sprayed bean plants. The note with it: spray 500 L/ha, 7 days, immature thrips count. The protocol: For evaluating control of the western flower thrips (Frankliniella occidentalis Pergande) through contact and/or systemic means, each test unit consisted of a bean plant (var. Soleil) with at least two true leaves, which was planted in Redi-earth® medium (Scotts Co.). One plant was considered as one replication; four replications were used per treatment.
Technical material (unformulated) was dissolved in acetone and mixed with water containing 500 ppm of a blend of non-ionic surfactant with organosilicone (Kinetic®, Helena Chemical Co.). Formulated materials were diluted with water only. Rates of the test solutions were reported by the amount of active ingredient in ppm. Plants were sprayed using a TeeJet flat fan spray nozzle positioned 7.5 inches (19 cm) above the tallest plant. Spray flow rate was adjusted to 5.5 mL/sec for an equivalent of 500 L/ha. After spraying of the test solutions, the test units were placed in ventilated enclosures for at least one hour to dry. Thirty adult thrips were then added to each unit, and then the plants were placed in enclosed cages to prevent insect egress. […] Percent control was calculated by dividing the number of immature thrips in a test unit by the number of immature thrips in the untreated unit, subtracting the quotient from 1, and then multiplying the difference by 100%.

Data set [3] concerns silverleaf whitefly (Bemisia argentifolii Bellows & Perring). Put plainly: Test B: control of silverleaf whitefly on sprayed cotton plants. The note with it: 144 h, read-out: % Mortality of Silverleaf Whitefly. From the text: For evaluating control of silverleaf whitefly (Bemisia argentifolii Bellows & Perring), the test unit consisted of a 14-21-day-old cotton plant with at least two true leaves, which was planted in Redi-earth® medium (Scotts Co.). The plants were placed in screened cages, where whitefly adults were introduced and allowed to lay eggs for approximately twenty-four hours. Only plants showing egg lay were used for testing. Before spraying the test solutions, the plants were checked again for egg hatch and crawler settlement. One leaf per plant was considered as one replication; four replications were used per treatment.
Test solutions were formulated as described in TEST A. A control solution consisting of 25% acetone in water was also prepared. After spraying, plants were allowed to dry in a ventilated enclosure and held for six days in a growth chamber at 50% relative humidity, 16 h with light (as daytime) at 28° C. and 8 h in dark (as nighttime) at 24° C. After removing all leaves from each test plant, evaluation was made by counting dead and live nymphs present on the underside of the leaves.

For data set [4], the system named is green peach aphid (Myzus persicae). Put plainly: Test C: control of green peach aphid on sprayed radish plants. The conditions noted are these: 144 h, read-out: % Mortality of Green Peach Aphid. The protocol: For evaluating control of green peach aphid (Myzus persicae) through contact and/or systemic means, the test unit consisted of a 3-week old radish plant pre-infested with 30-40 aphids 24 h prior to treatment with test solutions. One plant was considered as one replication, four replications were used per treatment.
After spraying of the formulated test solutions, each test unit was allowed to dry, and the test units were held for 6 days in a growth chamber maintained at 19-21° C. and 50-70% relative humidity. Dead and live of aphids were counted in each test unit to determine percent mortality.

On to `CNC(=O)c1cc(Cl)cc(C)c1NC(=O)c1cc(Br)nn1-c1ncccc1Cl` [Technical Compound 2, 3-bromo-N-[4-chloro-2-methyl-6-[(methylamino)carbonyl]phenyl]-1-(3-chloro-2-pyridinyl)-1H-pyrazole-5-carboxamide], for which the “Mean LC50 of Beet Armyworm” value in data set [1] is on record as “Inactive”; in data set [1] (listed as Compound 2), “no detectable activity”.
`CNC(=O)c1cc(C#N)cc(C)c1NC(=O)c1cc(Br)nn1-c1ncccc1Cl` [Technical Compound 1, 3-bromo-1-(3-chloro-2-pyridinyl)-N-[4-cyano-2-methyl-6-[(methylamino)carbonyl]phenyl]-1H-pyrazole-5-carboxamide]: the “% Control of Western Flower Thrips” value in data set [2] (100 ppm a.i.) came out at 74%. The “% Control of Western Flower Thrips” value in data set [2] (200 ppm a.i.) is on record as 72%. Moreover, in data set [3], the mortality at 22 ppm was found to be 90%, the mortality at 66 ppm was determined as 91%, the mortality at 200 ppm was found to be 100% and the mortality at 600 ppm came to 100%. Besides, the “Mean LC50 of Beet Armyworm” value in data set [1] is reported as “Very little activity”. The “Mean LC50 of Beet Armyworm” value in data set [1] (listed as Compound 1) is reported as “very little activity”. Besides, in data set [4], the mortality at 50 ppm amounted to 8%, the mortality at 100 ppm amounted to 9%, the mortality at 200 ppm was found to be 19% and the mortality at 400 ppm turned out to be 35%.
